Common to all, as to format: cell-based
One assay deals with Ustilago nuda. Nature of the assay: Fungal growth assay, Control of Ustilago nuda (PDB, 96-well, 24° C., photometric, 48 hrs).
The subject of the next assay is Microdochium nivale. Nature of the assay: Fungal growth assay, Control of Microdochium nivale (PDB, 96-well, 24° C., photometric, 72 hrs).
A further assay concerns Pyrenophora graminea. Put plainly: Fungal growth assay, Control of Pyrenophora graminea (PDB, 96-well, 24° C., photometric, 72 hrs).
A further assay concerns Gäumannomyces graminis. Put plainly: Fungal growth assay, Control of Gaumannomyces graminis (PDB, 96-well, 24° C., photometric, 72 hrs).
For the next assay, the system named is Rhizoctonia solani. Put plainly: Fungal growth assay, Control of Rhizoctonia solani (PDB, 96-well, 24° C., photometric, 48 hrs).
A further assay deals with Septoria tritici. Put plainly: Fungal growth assay, Control of Septoria tritici (PDB, 96-well, 24° C., photometric, 72 hrs).
A further assay has as its system Fusarium graminearum.

Where “and” joins values, the source holds several entries; their conditions need not be identical. Identical values can stand only once. Like-named read-outs stand apart in the source and are kept apart here.

For the molecule `Cn1cc(C(=O)Nc2ccccc2[C@@H]2C[C@H]2C2CC2)c(C(F)F)n1` (racemic) [Racemic cpd Ia], the “Observed control in % (% Cobs)” value turned out to be 5% in the assay with Ustilago nuda (0.0001 ppm); 0% in the assay with Ustilago nuda (0.0003 ppm); 0% in the assay with Ustilago nuda (0.002 ppm); 15% in the assay with Ustilago nuda (0.007 ppm); 0% in the assay on Microdochium nivale (0.0003 ppm); 0% with Microdochium nivale (0.0008 ppm). Besides, the “Observed control in % (% Cobs)” value with Microdochium nivale (0.002 ppm) is 0%; in the assay on Microdochium nivale (0.0025 ppm), 1% and 0%; with Microdochium nivale (0.007 ppm) it was 2%; in the assay on Microdochium nivale (0.0074 ppm), 0%; with Microdochium nivale (0.067 ppm) it was 0% and 4% and 2%; in the assay with Pyrenophora graminea (0.0003 ppm) it was 1%. The “Observed control in % (% Cobs)” value in the assay with Pyrenophora graminea (0.0008 ppm) was 6%; with Pyrenophora graminea (0.002 ppm) it was 0%; in the assay with Pyrenophora graminea (0.0074 ppm), 4%; in the assay on Pyrenophora graminea (0.022 ppm), 0%; in the assay on Pyrenophora graminea (0.0667 ppm), 20%; with Pyrenophora graminea (0.067 ppm), 1%. For the same molecule, the “Observed control in % (% Cobs)” value was 11% and 1% and 6% in the assay with Pyrenophora graminea (1.8 ppm); 0% with Gäumannomyces graminis (0.0003 ppm); 0% in the assay with Gäumannomyces graminis (0.0008 ppm); 2% with Gäumannomyces graminis (0.002 ppm); 0% with Gäumannomyces graminis (0.007 ppm); 0% in the assay with Gäumannomyces graminis (0.2 ppm). Further, the “Observed control in % (% Cobs)” value in the assay with Rhizoctonia solani (0.0001 ppm) is given as 3%; with Rhizoctonia solani (0.0008 ppm), 8%; in the assay with Rhizoctonia solani (0.0025 ppm), 4%; with Rhizoctonia solani (0.007 ppm), 4%; in the assay with Rhizoctonia solani (0.0074 ppm) it was 0%; in the assay on Septoria tritici (0.0001 ppm), 0%. Moreover, the “Observed control in % (% Cobs)” value was 2% and 1% in the assay on Septoria tritici (0.0003 ppm); 0% in the assay with Septoria tritici (0.007 ppm); 0% in the assay with Septoria tritici (0.0074 ppm); 0% with Septoria tritici (0.022 ppm); 4% with Septoria tritici (0.067 ppm); 0% with Fusarium graminearum (0.0001 ppm). The “Observed control in % (% Cobs)” value in the assay on Fusarium graminearum (0.0008 ppm) is 0%; in the assay on Fusarium graminearum (0.007 ppm), 0%; in the assay on Fusarium graminearum (0.0074 ppm), 0%; in the assay on Fusarium graminearum (0.022 ppm), 0%; in the assay with Fusarium graminearum (0.0667 ppm), 7%; with Fusarium graminearum (0.067 ppm), 4% and 10%. Also, the entries for the “Observed control in % (% Cobs)” value in the assay on Fusarium graminearum (0.2 ppm), in the assay with Fusarium graminearum (0.6 ppm) and in the assay on Fusarium graminearum (1.8 ppm) were 7%, 12% and 18%, respectively.
Regarding `CO/C=C(/C(=O)OC)c1ccccc1Oc1cc(Oc2ccccc2C#N)ncn1` [Azoxystrobin, reference compound], the “Observed control in % (% Cobs)” value with Gäumannomyces graminis (0.002 ppm) was determined as 11%.
With `CC(C1CC1)C(O)(Cn1cncn1)c1ccc(Cl)cc1` (centres unmarked) [Cyproconazole, reference compound], the “Observed control in % (% Cobs)” value is given as 0% in the assay on Microdochium nivale (0.2 ppm); 0% with Microdochium nivale (0.6 ppm); 9% in the assay with Microdochium nivale (1.8 ppm); 4% in the assay with Pyrenophora graminea (0.022 ppm); 19% with Pyrenophora graminea (0.2 ppm); 28% with Pyrenophora graminea (0.6 ppm). The “Observed control in % (% Cobs)” value in the assay with Fusarium graminearum (0.002 ppm) was 5%; with Fusarium graminearum (0.022 ppm), 1%; in the assay on Fusarium graminearum (0.2 ppm), 0%.
On to `CC1COC(Cn2cncn2)(c2ccc(Oc3ccc(Cl)cc3)cc2Cl)O1` (centres unmarked) [Difenoconazole, reference compound], for which the “Observed control in % (% Cobs)” value in the assay with Ustilago nuda (0.002 ppm) came out at 2%; in the assay on Microdochium nivale (0.007 ppm) it was 4%; in the assay on Microdochium nivale (0.2 ppm) it was 1%; in the assay on Microdochium nivale (0.6 ppm), 13%; in the assay on Pyrenophora graminea (0.007 ppm), 0%; with Pyrenophora graminea (0.022 ppm) it was 15%. For the same molecule, the “Observed control in % (% Cobs)” value amounted to 23% with Pyrenophora graminea (0.067 ppm) and 51% with Pyrenophora graminea (0.2 ppm).
As to `N#Cc1c[nH]cc1-c1cccc2c1OC(F)(F)O2` [Fludioxonil, reference compound], the “Observed control in % (% Cobs)” value was found to be 0% in the assay with Ustilago nuda (0.002 ppm); 0% in the assay on Ustilago nuda (0.007 ppm); 21% in the assay on Ustilago nuda (0.022 ppm); 0% with Microdochium nivale (0.002 ppm); 0% in the assay with Microdochium nivale (0.007 ppm); 0% in the assay with Microdochium nivale (0.022 ppm). Moreover, the “Observed control in % (% Cobs)” value in the assay on Microdochium nivale (0.067 ppm) turned out to be 3%; in the assay with Pyrenophora graminea (0.002 ppm), 7%; in the assay with Rhizoctonia solani (0.002 ppm) it was 0%; with Rhizoctonia solani (0.007 ppm), 6%; with Rhizoctonia solani (0.022 ppm), 0%; in the assay with Rhizoctonia solani (0.067 ppm), 0%. The “Observed control in % (% Cobs)” value in the assay on Septoria tritici (0.002 ppm) is 0%; in the assay on Septoria tritici (0.067 ppm), 9%; in the assay with Fusarium graminearum (0.007 ppm), 1%; in the assay on Fusarium graminearum (0.022 ppm), 6%; in the assay with Fusarium graminearum (0.067 ppm) it was 39%.
For `c1ccc2[nH]c(-c3cscn3)nc2c1` [Thiabendazole, reference compound], the “Observed control in % (% Cobs)” value came out at 0% in the assay with Pyrenophora graminea (0.0025 ppm); 0% in the assay with Pyrenophora graminea (0.0223 ppm); 0% in the assay with Rhizoctonia solani (0.0074 ppm); 7% in the assay with Rhizoctonia solani (0.023 ppm); 12% in the assay on Rhizoctonia solani (0.2 ppm); 13% with Rhizoctonia solani (0.6 ppm). The “Observed control in % (% Cobs)” value was determined as 0% in the assay with Septoria tritici (0.0223 ppm); 0% in the assay on Septoria tritici (0.067 ppm); 3% with Septoria tritici (0.6 ppm); 1% in the assay with Septoria tritici (1.8 ppm); 1% with Fusarium graminearum (0.0025 ppm); 0% in the assay on Fusarium graminearum (0.0223 ppm).

Source of the values: patent US10405548B2, “Fungicidal compositions” (Syngenta Crop Protection, LLC, priority 2004, dated 2019).
